# Tests used:
# [1] = system: Hs766T pancreatic cancer cell line; assay: Oligonucleotide microarray gene expression after TSA (1 μM, 24 h) vs mock; assay type: cell-based, human
# Source text: (§1) These include a large panel of novel targets for silencing by histone deacetylation including several known tumor suppressor genes or cell cycle-regulatory genes (ING1, p57KIP2, CHES1, CHFR, GADD45B, and others).
# [2] = system: AsPC1 pancreatic cancer cell line; assay: as above; assay type: cell-based, human
# Source text: as §1
structure (smiles),measurement,setting,value
"CC(/C=C/C(=O)NO)=C\[C@@H](C)C(=O)c1ccc(N(C)C)cc1 [TSA, trichostatin A]",Fold-change after TSA treatment,"[1]; ADM, Hs766T",1.86 fold
same,Fold-change after TSA treatment,"[1]; ANGPT1, Hs766T",6.72 fold
same,Fold-change after TSA treatment,"[1]; AREG, Hs766T",2.02 fold
same,Fold-change after TSA treatment,"[1]; ATF3, Hs766T",1.73 fold
same,Fold-change after TSA treatment,"[1]; BIK, Hs766T",2.35 fold
same,Fold-change after TSA treatment,"[1]; CACNA1G, Hs766T",2.72 fold
same,Fold-change after TSA treatment,"[1]; CAPN5, Hs766T",1.06 fold
same,Fold-change after TSA treatment,"[1]; CDH8, Hs766T",−1.11 fold
same,Fold-change after TSA treatment,"[1]; CDKN1C, Hs766T",6.57 fold
same,Fold-change after TSA treatment,"[1]; CGR11, Hs766T",1.82 fold
same,Fold-change after TSA treatment,"[1]; CHES1, Hs766T",−1.11 fold
same,Fold-change after TSA treatment,"[1]; CHFR, Hs766T",8 fold
same,Fold-change after TSA treatment,"[1]; CLDN15, Hs766T",−1.81 fold
same,Fold-change after TSA treatment,"[1]; EDR1, Hs766T",−1.26 fold
same,Fold-change after TSA treatment,"[1]; EGR4, Hs766T",6.49 fold
same,Fold-change after TSA treatment,"[1]; EREG, Hs766T",7.43 fold
same,Fold-change after TSA treatment,"[1]; GADD45B, Hs766T",2.01 fold
same,Fold-change after TSA treatment,"[1]; GAGE1, Hs766T",14.57 fold
same,Fold-change after TSA treatment,"[1]; GAGE2, Hs766T",432.64 fold
same,Fold-change after TSA treatment,"[1]; GAGE3, Hs766T",184.93 fold
same,Fold-change after TSA treatment,"[1]; GAGE4, Hs766T",234.36 fold
same,Fold-change after TSA treatment,"[1]; GAGE6, Hs766T",237.45 fold
same,Fold-change after TSA treatment,"[1]; GAGE7B, Hs766T",331.97 fold
same,Fold-change after TSA treatment,"[1]; H1 historic family, member 2 (BC002649), Hs766T",5.8 fold
same,Fold-change after TSA treatment,"[1]; HEP27, Hs766T",1631 fold
same,Fold-change after TSA treatment,"[1]; HMOX1, Hs766T",2.56 fold
same,Fold-change after TSA treatment,"[1]; HPSE, Hs766T",−1.12 fold
same,transcripts with marked induction,[1]; Hs766T,349 transcripts
same,"transcripts with marked induction, share of transcripts analyzed",[1]; Hs766T,1.9%
same,Fold-change after TSA treatment,"[1]; ID2, Hs766T",5 fold
same,Fold-change after TSA treatment,"[1]; ING1, Hs766T",11.83 fold
same,Fold-change after TSA treatment,"[1]; KLK12, Hs766T",1.54 fold
same,Fold-change after TSA treatment,"[1]; MAGE1, Hs766T",0.49 fold
same,Fold-change after TSA treatment,"[1]; MBD1, Hs766T",7.94 fold
same,Fold-change after TSA treatment,"[1]; MMP1, Hs766T",1.63 fold
same,Fold-change after TSA treatment,"[1]; NGFR, Hs766T",4.11 fold
same,Fold-change after TSA treatment,"[1]; NOTCH3, Hs766T",2.06 fold
same,Fold-change after TSA treatment,"[1]; P-glycoprotein (mdr1), Hs766T",5.74 fold
same,Fold-change after TSA treatment,"[1]; SPANXA1, Hs766T",15.92 fold
same,Fold-change after TSA treatment,"[1]; STC1, Hs766T",−1.31 fold
same,Fold-change after TSA treatment,"[1]; UCPH, Hs766T",−1.45 fold
same,Fold-change after TSA treatment,"[1]; ULBP2, Hs766T",3.47 fold
same,Fold-change after TSA treatment,"[1]; WNT4, Hs766T",0.81 fold
same,Fold-change after TSA treatment,"[1]; candidate tumor suppressor gene 21 protein (AF040708), Hs766T",5.14 fold
same,Fold-change after TSA treatment,"[1]; connective tissue growth factor (M92934), Hs766T",43 fold
same,Fold-change after TSA treatment,"[1]; hemoglobin, alpha 1 (HBAI), Hs766T",1.55 fold
same,Fold-change after TSA treatment,"[1]; interleukin 8, Hs766T",−1.42 fold
same,Fold-change after TSA treatment,"[1]; period homolog 1 (PERI), Hs766T",9.7 fold
same,Fold-change after TSA treatment,"[1]; prostate differentiation factor (AF003934), Hs766T",3.17 fold
same,Fold-change after TSA treatment,"[1]; protease inhibitor 12 (neuroserpin) (SERPINU), Hs766T",1.95 fold
same,Fold-change after TSA treatment,"[1]; synovial sarcoma, X breakpoint 1 (BC001003), Hs766T",38.74 fold
same,Fold-change after TSA treatment,"[1]; tissue factor pathway inhibitor-2 (L27624), Hs766T",120.09 fold
same,Fold-change after TSA treatment,"[2]; ADM, AsPC1",7.6 fold
same,Fold-change after TSA treatment,"[2]; ANGPT1, AsPC1",−1.77 fold
same,Fold-change after TSA treatment,"[2]; AREG, AsPC1",18.35 fold
same,Fold-change after TSA treatment,"[2]; ATF3, AsPC1",8.73 fold
same,transcripts with marked induction,[2]; AsPC1,424 transcripts
same,"transcripts with marked induction, share of transcripts analyzed",[2]; AsPC1,2.3%
same,Fold-change after TSA treatment,"[2]; BIK, AsPC1",1.65 fold
same,Fold-change after TSA treatment,"[2]; CACNA1G, AsPC1",9.95 fold
same,Fold-change after TSA treatment,"[2]; CAPN5, AsPC1",1.73 fold
same,Fold-change after TSA treatment,"[2]; CDH8, AsPC1",1.11 fold
same,Fold-change after TSA treatment,"[2]; CDKN1C, AsPC1",10.62 fold
same,Fold-change after TSA treatment,"[2]; CGR11, AsPC1",−1.39 fold
same,Fold-change after TSA treatment,"[2]; CHES1, AsPC1",1.87 fold
same,Fold-change after TSA treatment,"[2]; CHFR, AsPC1",−1.1 fold
same,Fold-change after TSA treatment,"[2]; CLDN15, AsPC1",−4.26 fold
same,Fold-change after TSA treatment,"[2]; EDR1, AsPC1",4.56 fold
same,Fold-change after TSA treatment,"[2]; EGR4, AsPC1",37.6 fold
same,Fold-change after TSA treatment,"[2]; EREG, AsPC1",1.91 fold
same,Fold-change after TSA treatment,"[2]; GADD45B, AsPC1",2.65 fold
same,Fold-change after TSA treatment,"[2]; GAGE1, AsPC1",0.66 fold
same,Fold-change after TSA treatment,"[2]; GAGE2, AsPC1",−2.5 fold
same,Fold-change after TSA treatment,"[2]; GAGE3, AsPC1",−5.88 fold
same,Fold-change after TSA treatment,"[2]; GAGE4, AsPC1",−1.67 fold
same,Fold-change after TSA treatment,"[2]; GAGE6, AsPC1",−1.16 fold
same,Fold-change after TSA treatment,"[2]; GAGE7B, AsPC1",−4.88 fold
same,Fold-change after TSA treatment,"[2]; H1 historic family, member 2 (BC002649), AsPC1",6.64 fold
same,Fold-change after TSA treatment,"[2]; HEP27, AsPC1",413.37 fold
same,Fold-change after TSA treatment,"[2]; HMOX1, AsPC1",1.73 fold
same,Fold-change after TSA treatment,"[2]; HPSE, AsPC1",2.18 fold
same,Fold-change after TSA treatment,"[2]; ID2, AsPC1",10.26 fold
same,Fold-change after TSA treatment,"[2]; ING1, AsPC1",13.22 fold
same,Fold-change after TSA treatment,"[2]; KLK12, AsPC1",7.63 fold
same,Fold-change after TSA treatment,"[2]; MAGE1, AsPC1",1.05 fold
same,Fold-change after TSA treatment,"[2]; MBD1, AsPC1",2.66 fold
same,Fold-change after TSA treatment,"[2]; MMP1, AsPC1",9.05 fold
same,Fold-change after TSA treatment,"[2]; NGFR, AsPC1",0.76 fold
same,Fold-change after TSA treatment,"[2]; NOTCH3, AsPC1",7.93 fold
same,Fold-change after TSA treatment,"[2]; P-glycoprotein (mdr1), AsPC1",1.08 fold
same,Fold-change after TSA treatment,"[2]; SPANXA1, AsPC1",−0.78 fold
same,Fold-change after TSA treatment,"[2]; STC1, AsPC1",15.9 fold
same,Fold-change after TSA treatment,"[2]; UCPH, AsPC1",5.48 fold
same,Fold-change after TSA treatment,"[2]; ULBP2, AsPC1",73.47 fold
same,Fold-change after TSA treatment,"[2]; WNT4, AsPC1",5.72 fold
same,Fold-change after TSA treatment,"[2]; candidate tumor suppressor gene 21 protein (AF040708), AsPC1",−1.47 fold
same,Fold-change after TSA treatment,"[2]; connective tissue growth factor (M92934), AsPC1",17.38 fold
same,Fold-change after TSA treatment,"[2]; hemoglobin, alpha 1 (HBAI), AsPC1",20.5 fold
same,Fold-change after TSA treatment,"[2]; interleukin 8, AsPC1",44.67 fold
same,Fold-change after TSA treatment,"[2]; period homolog 1 (PERI), AsPC1",20.29 fold
same,Fold-change after TSA treatment,"[2]; prostate differentiation factor (AF003934), AsPC1",4.45 fold
same,Fold-change after TSA treatment,"[2]; protease inhibitor 12 (neuroserpin) (SERPINU), AsPC1",8 fold
same,Fold-change after TSA treatment,"[2]; synovial sarcoma, X breakpoint 1 (BC001003), AsPC1",1.74 fold
same,Fold-change after TSA treatment,"[2]; tissue factor pathway inhibitor-2 (L27624), AsPC1",0.4 fold

# — US8785614B2, “Aberrantly methylated genes in pancreatic cancer” (The Johns Hopkins University, priority 2003, dated 2014)
